According to ChEMBL document CHEMBL3734712, “Sanguiin H6 suppresses TGF-β induction of the epithelial-mesenchymal transition and inhibits migration and invasion in A549 lung cancer” (Bioorg Med Chem Lett, 2015):
Active and inactive are the calls of the source.

How the values were obtained:
[1] = test system: A549; assay: Inhibition of TGF-beta1 stimulated invasion in human A549 cells at 5 to 10 uM incubated for 48 hrs by matrigel invasion assay; format: functional, cell-based
[2] = test system: A549; assay: Inhibition of TGF-beta1 induced epithelial-mesenchymal transition in human A549 cells assessed as reduction in nuclear SMAD2 level preincubated for 2 hrs by Western blot method; format: functional, cell-based
[3] = test system: A549; assay: Inhibition of TGF-beta1-induced upregulation of mesenchymal marker N-cadherin expression in human A549 cells at 5 to 10 uM preincubated for 2 hrs by Western blot method; format: functional, cell-based
[4] = test system: A549; assay: Inhibition of TGF-beta1 response promoter transactivation mediated SMAD2 and SMAD3 phosphorylation in human A549 cells at 5 to 10 uM preincubated for 2 hrs by dual luciferase reporter assay; format: functional, cell-based
[5] = test system: A549; assay: Cytotoxicity against human A549 cells assessed as cell viability at 50 to 100 uM after 48 hrs by WST-8 staining based CCK8 assay; conditions: a549, 48 h
[6] = test system: A549; assay: Inhibition of TGF-beta1 induced epithelial-mesenchymal transition in human A549 cells assessed as reduction in […] level AT 5 AND 10 uM incubated for 48 hrs by qRT-PCR method; format: functional, cell-based
[7] = test system: A549; assay: Inhibition of TGF-beta1 induced epithelial-mesenchymal transition in human A549 cells assessed as reduction in SPARC level AT 5 AND 10 uM incubated for 48 hrs by qRT-PCR method; format: functional, cell-based
[8] = test system: A549; assay: Inhibition of TGF-beta1 induced epithelial-mesenchymal transition in human A549 cells assessed as reduction in phosphorylated SMAD3 level preincubated for 2 hrs followed by TGF-beta1 addition by Western blot method; format: functional, cell-based
[9] = test system: A549; assay: Inhibition of TGF-beta1 induced epithelial-mesenchymal transition in human A549 cells assessed as reduction in PAI1 level AT 5 AND 10 uM incubated for 48 hrs by qRT-PCR method; format: functional, cell-based
[10] = test system: A549; assay: Inhibition of TGF-beta1-induced downregulation of epithelial marker E-cadherin expression in human A549 cells at 5 to 10 uM preincubated for 2 hrs by Western blot method; format: functional, cell-based
[11] = test system: A549; assay: Inhibition of TGF-beta1 induced epithelial-mesenchymal transition in human A549 cells assessed as morphological changes at 5 to 10 uM preincubated for 2 hrs followed by TGF-beta1 addition; format: functional, cell-based
[12] = test system: A549; assay: Inhibition of TGF-beta1 induced epithelial-mesenchymal transition in human A549 cells assessed as reduction in ITGA5 level AT 5 AND 10 uM incubated for 48 hrs by qRT-PCR method; format: functional, cell-based
[13] = test system: A549; assay: Inhibition of TGF-beta1 induced epithelial-mesenchymal transition in human A549 cells assessed as reduction in SNAI1 level AT 5 AND 10 uM incubated for 48 hrs by qRT-PCR method; format: functional, cell-based
[14] = test system: A549; assay: Inhibition of TGF-beta1 induced cell migration in human A549 cells assessed as reduction in cell surface area incubated for 48 hrs by wound healing assay; format: functional, cell-based
[15] = test system: A549; assay: Inhibition of TGF-beta1 induced epithelial-mesenchymal transition in human A549 cells assessed as reduction in CDH2 level AT 5 AND 10 uM incubated for 48 hrs by qRT-PCR method; format: functional, cell-based
[16] = test system: A549; assay: Inhibition of TGF-beta1 induced epithelial-mesenchymal transition in human A549 cells assessed as reduction in nuclear phosphorylated SMAD3 level preincubated for 2 hrs by Western blot method; format: functional, cell-based
[17] = test system: A549; assay: Inhibition of TGF-beta1-induced plasminogen activator inhibitor type 1 expression in human A549 cells assessed at 5 to 10 uM preincubated for 2 hrs by Western blot method; format: functional, cell-based
[18] = test system: A549; assay: Cytotoxicity against human A549 cells assessed as cell viability at 1 to 25 uM after 48 hrs by WST-8 staining based CCK8 assay; conditions: a549, 48 h
[19] = test system: A549; assay: Inhibition of TGF-beta1 induced epithelial-mesenchymal transition in human A549 cells assessed as reduction in CALD1 level AT 5 AND 10 uM incubated for 48 hrs by qRT-PCR method; format: functional, cell-based
[20] = test system: A549; assay: Inhibition of TGF-beta1 induced epithelial-mesenchymal transition in human A549 cells assessed as reduction in nuclear SMAD3 level preincubated for 2 hrs by Western blot method; format: functional, cell-based
[21] = test system: A549; assay: Inhibition of TGF-beta1 induced epithelial-mesenchymal transition in human A549 cells assessed as reduction in SNAI2 level AT 5 AND 10 uM incubated for 48 hrs by qRT-PCR method; format: functional, cell-based
[22] = test system: A549; assay: Inhibition of TGF-beta1-induced upregulation of Snail protein expression in human A549 cells preincubated for 2 hrs by Western blot method; format: functional, cell-based
[23] = test system: A549; assay: Inhibition of TGF-beta1 induced epithelial-mesenchymal transition in human A549 cells assessed as reduction in COL5A2 level AT 5 AND 10 uM incubated for 48 hrs by qRT-PCR method; format: functional, cell-based
[24] = test system: A549; assay: Inhibition of TGF-beta1 induced epithelial-mesenchymal transition in human A549 cells assessed as reduction in nuclear phosphorylated SMAD2 level preincubated for 2 hrs by Western blot method; format: functional, cell-based
[25] = test system: A549; assay: Inhibition of TGF-beta1-induced matrix metalloproteinase-9 expression in human A549 cells at 5 to 10 uM preincubated for 2 hrs by Western blot method; format: functional, cell-based
[26] = test system: A549; assay: Inhibition of TGF-beta1-induced […] Snail promoter activity in human A549 cells at 5 to 10 uM preincubated for 2 hrs by dual luciferase reporter assay; format: functional, cell-based
[27] = test system: A549; assay: Inhibition of TGF-beta1 induced epithelial-mesenchymal transition in human A549 cells assessed as reduction in phosphorylated SMAD2 level preincubated for 2 hrs followed by TGF-beta1 addition by Western blot method; format: functional, cell-based

O=C(O[C@@H]1O[C@@H]2COC(=O)c3cc(O)c(O)c(O)c3-c3c(cc(O)c(O)c3O)C(=O)O[C@H]2[C@@H]2OC(=O)c3cc(O)c(O)c(O)c3-c3c(cc(O)c(O)c3O)C(=O)O[C@H]12)c1cc(O)c(O)c(Oc2c(O)c(O)c(O)c3c2C(=O)O[C@H]2[C@@H]4OC(=O)c5cc(O)c(O)c(O)c5-c5c(cc(O)c(O)c5O)C(=O)O[C@@H]4[C@@H](OC(=O)c4cc(O)c(O)c(O)c4)O[C@@H]2COC(=O)c2cc(O)c(O)c(O)c2-3)c1
Toxic: Activity [5]
active: inhibition [1] | inhibition [2] Dose-dependent effect | inhibition [3] | inhibition [4] | inhibition [6] | inhibition [7] | inhibition [8] Dose-dependent effect | inhibition [9] | inhibition [10] | inhibition [11] | inhibition [12] | inhibition [13] | inhibition [14] Dose-dependent effect | inhibition [15] | inhibition [16] Dose-dependent effect | inhibition [17] Dose-dependent effect | inhibition [19] | inhibition [20] Dose-dependent effect | inhibition [21] | inhibition [22] Dose-dependent effect | inhibition [23] | inhibition [24] Dose-dependent effect | inhibition [25] | inhibition [26] | inhibition [27] Dose-dependent effect
Non-toxic: Activity [18]
